Laboratory results published in DBAASP.
≈ marks a conversion by molar mass, not a printed value.

Key:
Test in all cases: ≥ marks a high value that may be exact or a test limit, other limits are often not marked, values filed in µg/mL are converted to µM
[1] = tested on: Escherichia coli ATCC 25922
Escherichia coli = tested on: Escherichia coli
[2] = tested on: Staphylococcus aureus ATCC 29213
[3] = tested on: Pseudomonas aeruginosa ATCC 27853
Staphylococcus aureus = tested on: Staphylococcus aureus
Pseudomonas aeruginosa = tested on: Pseudomonas aeruginosa

| SMILES | MIC [1] | MIC (Escherichia coli) | MIC [2] | other results |
| --- | --- | --- | --- | --- |
| NCC(=O)N[C@@H](CCCN=C(N)N)C(=O)N[C@@H](CCCN=C(N)N)C(=O)N1CCC[C@H]1C(=O)N[C@@H](CCCN=C(N)N)C(=O)N1CCC[C@H]1C(=O)N[C@@H](CCCN=C(N)N)C(=O)N1CCC[C@H]1C(=O)N[C@@H](CCCN=C(N)N)C(=O)N1CCC[C@H]1C(=O)N[C@@H](Cc1c[nH]c2ccccc12)C(=O)N[C@@H](Cc1c[nH]c2ccccc12)C(=O)N[C@@H](Cc1c[nH]c2ccccc12)C(=O)N[C@@H](Cc1c[nH]c2ccccc12)C(=O)N[C@@H](Cc1c[nH]c2ccccc12)C(=O)O [GRRPRPRPRPWWWWW] | 5 µM (≈ 10.9 µg/mL) |  | 20 µM (≈ 43.5 µg/mL) | MIC [3]: 20 µM (≈ 43.5 µg/mL) |
| CC[C@H](C)[C@H](NC(=O)[C@H](CCCN=C(N)N)NC(=O)[C@H](CCC(N)=O)NC(=O)[C@@H](NC(=O)[C@@H](NC(=O)[C@H](CCCN=C(N)N)NC(=O)[C@H](CCCCN)NC(=O)[C@@H](N)Cc1ccccc1)[C@@H](C)CC)C(C)C)C(=O)N[C@@H](CCCCN)C(=O)N[C@@H](CC(=O)O)C(=O)N[C@@H](Cc1ccccc1)C(=O)N[C@@H](C)C(=O)N[C@@H](CCCN=C(N)N)C(=O)O [FKRIVQRIKDFAR] | 10 µM (≈ 16.8 µg/mL) |  | > 40 µM |  |
| CC[C@H](C)[C@H](NC(=O)[C@H](CCCN=C(N)N)NC(=O)[C@H](CCC(N)=O)NC(=O)[C@@H](NC(=O)[C@H](Cc1cnc[nH]1)NC(=O)[C@H](CCCN=C(N)N)NC(=O)[C@H](CCCCN)NC(=O)[C@@H](N)Cc1ccccc1)C(C)C)C(=O)N[C@@H](CCCCN)C(=O)N[C@@H](CC(=O)O)C(=O)N[C@@H](Cc1ccccc1)C(=O)N[C@@H](CC(C)C)C(=O)N[C@@H](CCCN=C(N)N)C(=O)O [FKRHVQRIKDFLR] | 10 µM (≈ 17.4 µg/mL) |  | > 40 µM |  |
| CC[C@H](C)[C@H](NC(=O)CN)C(=O)NCC(=O)N[C@@H](CCCCN)C(=O)N[C@@H](Cc1ccccc1)C(=O)N[C@@H](CC(C)C)C(=O)N[C@@H](Cc1cnc[nH]1)C(=O)N[C@@H](CCCCN)C(=O)N[C@H](C(=O)N[C@@H](CCCCN)C(=O)N[C@@H](CO)C(=O)N[C@@H](Cc1ccccc1)C(=O)NCC(=O)N[C@@H](CCCCN)C(=O)N[C@@H](CO)C(=O)N[C@@H](Cc1c[nH]c2ccccc12)C(=O)N[C@H](C(=O)NCC(=O)N[C@@H](CCC(=O)O)C(=O)N[C@H](C(=O)N[C@@H](CCSC)C(=O)N[C@@H](CC(N)=O)C(=O)N[C@@H](CO)C(N)=O)[C@@H](C)CC)[C@@H](C)CC)C(C)C [GIGKFLHKVKSFGKSWIGEIMNS] | 19 µM (≈ 48.7 µg/mL) |  | 76 µM (≈ 195 µg/mL) | MIC [3]: 19 µM (≈ 48.7 µg/mL) |
| CC[C@H](C)[C@H](NC(=O)[C@H](Cc1ccccc1)NC(=O)[C@H](CO)NC(=O)[C@H](CCCCN)NC(=O)[C@H](Cc1c[nH]c2ccccc12)NC(=O)[C@@H](N)CCCCN)C(=O)N[C@@H](CCCCN)C(=O)N[C@@H](CCCCN)C(=O)N[C@@H](CC(C)C)C(=O)N[C@H](C(=O)N[C@@H](CC(C)C)C(=O)N[C@@H](CCCCN)C(=O)N[C@@H](Cc1ccccc1)C(=O)N[C@@H](CC(C)C)C(=O)N[C@@H](Cc1cnc[nH]1)C(=O)N[C@@H](CO)C(=O)N[C@@H](CCCCN)C(=O)N[C@@H](CCCCN)C(=O)N[C@@H](CCCCN)C(=O)N[C@@H](Cc1ccccc1)C(N)=O)[C@@H](C)O [KWKSFIKKLTLKFLHSKKKF] |  |  |  | MIC (Pseudomonas aeruginosa): > 19.7 µM |
| CC(C)C[C@H](NC(=O)[C@H](CCCCN)NC(=O)[C@H](CC(C)C)NC(=O)[C@H](CC(C)C)NC(=O)[C@H](CCCCN)NC(=O)[C@H](CCCCN)NC(=O)[C@H](CC(C)C)NC(=O)[C@H](CC(C)C)NC(=O)[C@H](CCCCN)NC(=O)[C@H](CC(C)C)NC(=O)[C@H](CC(C)C)NC(=O)[C@H](CCCCN)NC(=O)[C@H](CCCCN)NC(=O)[C@H](C)N)C(=O)N[C@@H](C)C(=O)NCC(=O)O [AKKLLKLLKKLLKLAG] | 5 µM (≈ 8.89 µg/mL) |  | 10 µM (≈ 17.8 µg/mL) |  |
| CC[C@H](C)[C@H](NC(=O)CNC(=O)[C@H](CCCCN)NC(=O)[C@H](CCCCN)NC(=O)[C@H](CCCCN)NC(=O)[C@@H](N)CCCCN)C(=O)NCC(=O)N[C@@H](CCCCN)C(=O)N[C@@H](Cc1ccccc1)C(=O)N[C@@H](CC(C)C)C(=O)N[C@@H](Cc1cnc[nH]1)C(=O)N[C@@H](CO)C(=O)N[C@@H](C)C(=O)N[C@@H](CCCCN)C(=O)N[C@@H](CCCCN)C(=O)N[C@@H](Cc1ccccc1)C(=O)NCC(=O)N[C@@H](CCCCN)C(=O)N[C@@H](C)C(=O)N[C@@H](Cc1ccccc1)C(=O)N[C@H](C(=O)NCC(=O)N[C@@H](CCC(=O)O)C(=O)N[C@H](C(=O)N[C@@H](CCSC)C(=O)N[C@@H](CC(N)=O)C(=O)N[C@@H](CO)C(=O)O)[C@@H](C)CC)C(C)C [KKKKGIGKFLHSAKKFGKAFVGEIMNS] |  |  | > 33.6 µM |  |
| CC[C@H](C)[C@H](NC(=O)[C@H](Cc1c[nH]c2ccccc12)NC(=O)[C@H](CCCCN)NC(=O)[C@@H]1CCCN1C(=O)[C@H](CC(C)C)NC(=O)[C@H](CCCCN)NC(=O)CNC(=O)[C@@H](NC(=O)[C@@H](NC(=O)[C@H](CO)NC(=O)[C@@H](NC(=O)[C@@H](NC(=O)[C@H](CCCCN)NC(=O)[C@H](CCC(N)=O)NC(=O)[C@H](C)N)[C@@H](C)CC)[C@@H](C)CC)[C@@H](C)O)[C@@H](C)CC)C(=O)N[C@H](C(=O)N[C@@H](CCCCN)C(=O)N[C@H](C(=O)N[C@H](C(=O)N[C@@H](CC(N)=O)C(=O)N[C@@H](CCCCN)C(=O)N[C@@H](Cc1ccccc1)C(=O)N[C@H](C(=O)N[C@@H](CCCCN)C(=O)N[C@@H](CCCCN)C(=O)O)[C@@H](C)O)C(C)C)[C@@H](C)O)[C@@H](C)CC [AQKIISTIGKLPKWIIKTVNKFTKK] |  | 2.5 µM (≈ 7.21 µg/mL) |  |  |
| CC[C@H](C)[C@H](NC(=O)CNC(=O)[C@H](CC(C)C)NC(=O)[C@@H](NC(=O)[C@@H]1CCCN1C(=O)[C@H](CC(N)=O)NC(=O)[C@H](CC(C)C)NC(=O)[C@H](CC(C)C)NC(=O)CNC(=O)[C@H](CC(N)=O)NC(=O)[C@H](CC(C)C)NC(=O)[C@H](CC(C)C)NC(=O)[C@@H](N)CC(=O)O)C(C)C)C(=O)N[C@@H](C)C(=O)N[C@@H](CC(N)=O)C(=O)NCC(=O)N[C@@H](CC(C)C)C(=O)N[C@H](C(=O)NCC(=O)NCC(=O)N[C@@H](CC(C)C)C(=O)N[C@H](C(=O)N[C@@H](CCCCN)C(=O)N[C@@H](CCCCN)C(N)=O)C(C)C)[C@@H](C)O [DLLNGLLNPVLGIANGLTGGLVKK] | > 293 µM |  | > 293 µM |  |

The next lines start with results.

| MIC [1] | MIC (Escherichia coli) | MIC [2] | SMILES | other results |
| --- | --- | --- | --- | --- |
| 5 µM (≈ 8.99 µg/mL) | 20 µM (≈ 36 µg/mL) | > 40 µM | CC(C)C[C@H](NC(=O)[C@H](CCCCN)NC(=O)[C@@H]1CSSC[C@H](NC(=O)[C@H](CC(C)C)NC(=O)[C@H](CCCCN)NC(=O)[C@H](CC(C)C)NC(=O)[C@H](CC(C)C)NC(=O)[C@H](CCCCN)NC(=O)[C@H](CCCCN)NC(=O)[C@@H](N)CC(C)C)C(=O)N[C@@H](CCCCN)C(=O)N[C@@H](CCCCN)C(=O)N[C@@H](CC(C)C)C(=O)N1)C(=O)N[C@@H](C)C(=O)NCC(=O)O [LKKLLKLCKKLCKLAG] |  |
|  | 3.4 µM (≈ 10.3 µg/mL) |  | CC[C@H](C)[C@H](NC(=O)[C@H](Cc1c[nH]c2ccccc12)NC(=O)[C@H](CCCCN)NC(=O)[C@@H]1CCCN1C(=O)[C@H](CC(C)C)NC(=O)[C@H](CCCCN)NC(=O)CNC(=O)[C@@H](NC(=O)[C@@H](NC(=O)[C@H](CO)NC(=O)[C@@H](NC(=O)[C@@H](NC(=O)[C@H](CCCCN)NC(=O)[C@H](CCC(N)=O)NC(=O)[C@H](C)NC(=O)[C@@H](N)CCSC)[C@@H](C)CC)[C@@H](C)CC)[C@@H](C)O)[C@@H](C)CC)C(=O)N[C@H](C(=O)N[C@@H](CCCCN)C(=O)N[C@H](C(=O)N[C@H](C(=O)N[C@@H](CC(N)=O)C(=O)N[C@@H](CCCCN)C(=O)N[C@@H](Cc1ccccc1)C(=O)N[C@H](C(=O)N[C@@H](CCCCN)C(=O)N[C@@H](CCCCN)C(=O)O)[C@@H](C)O)C(C)C)[C@@H](C)O)[C@@H](C)CC [MAQKIISTIGKLPKWIIKTVNKFTKK] | MIC (Staphylococcus aureus): 20.8 µM (≈ 62.7 µg/mL) |
|  | > 38.9 µM |  | C[C@H](NC(=O)[C@H](C)NC(=O)[C@H](CCCCN)NC(=O)[C@H](C)NC(=O)[C@H](Cc1ccccc1)NC(=O)[C@H](Cc1c[nH]c2ccccc12)NC(=O)[C@H](CCCCN)NC(=O)[C@H](Cc1c[nH]c2ccccc12)NC(=O)[C@H](CCCCN)NC(=O)[C@H](CCCCN)NC(=O)[C@H](C)NC(=O)[C@H](Cc1c[nH]c2ccccc12)NC(=O)[C@@H](N)CCCCN)C(=O)N[C@@H](Cc1c[nH]c2ccccc12)C(=O)N[C@@H](CCCCN)C(=O)N[C@@H](Cc1c[nH]c2ccccc12)C(=O)N[C@@H](Cc1ccc(O)cc1)C(=O)N[C@@H](CCCCN)C(=O)N[C@@H](CCCCN)C(N)=O [KWAKKWKWFAKAAWKWYKK] | MIC (Staphylococcus aureus): > 38.9 µM |
| 10 µM (≈ 17 µg/mL) |  | 3.54 µM (≈ 6.02 µg/mL) | CC(=O)N[C@@H](CCCCN)C(=O)N[C@@H](CC(C)C)C(=O)N[C@@H](CC(C)C)C(=O)N[C@@H](CCCCN)C(=O)N[C@@H](CC(C)C)C(=O)N[C@@H](CC(C)C)C(=O)N[C@@H](CCCCN)C(=O)N1CCC[C@H]1C(=O)N[C@@H](CC(C)C)C(=O)N[C@@H](CC(C)C)C(=O)N[C@@H](CCCCN)C(=O)N[C@@H](CC(C)C)C(=O)N[C@@H](CC(C)C)C(=O)N[C@@H](CCCCN)C(N)=O [KLLKLLKPLLKLLK] |  |
|  | 0.359 µM (≈ 0.699 µg/mL) |  | CC(C)C[C@H](NC(=O)[C@H](CCCN=C(N)N)NC(=O)CNC(=O)CNC(=O)[C@@H](N)CCCN=C(N)N)C(=O)N[C@H]1CSSC[C@@H](C(=O)N[C@H](C(=O)O)[C@@H](C)O)NC(=O)[C@H](C(C)C)NC(=O)[C@@H]2CSSC[C@H](NC(=O)[C@H](Cc3ccc(O)cc3)NC1=O)C(=O)N[C@@H](CCCN=C(N)N)C(=O)N[C@@H](CCCN=C(N)N)C(=O)N[C@@H](CCCN=C(N)N)C(=O)N[C@@H](Cc1ccccc1)C(=O)N2 [RGGRLCYCRRRFCVCT] |  |
| 28.7 µM (≈ 32 µg/mL) |  | > 57.5 µM | CC[C@H](C)[C@H](NC(=O)[C@H](CCCCN)NC(=O)[C@H](CCCCN)NC(=O)[C@@H](N)CCC(N)=O)C(=O)N[C@@H](C)C(=O)N[C@H](C(=O)N[C@@H](CCCN=C(N)N)C(=O)N[C@@H](CC(C)C)C(=O)N[C@@H](CO)C(=O)N[C@@H](C)C(=O)O)C(C)C [QKKIAVRLSA] | MIC [3]: 7.19 µM (≈ 8 µg/mL) |
